Laboratory results taken from ChEMBL document CHEMBL1201862, “PubChem BioAssay data set” (2004).
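Test compounds were applied to cells in 96-well plates for 48 hours at 5 doses. GI50 marks 50% less growth.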 Calls of active or inactive are those of the source. No stated cut-off is given here; in the data, active = GI50 up to about 1.1 µM and inactive = higher.

Key:
Experiment in all cases: NCI anticancer screen, dose series, 48 h
LXFL 529 = system: LXFL 529
SK-MEL-28 = system: SK-MEL-28
SK-MEL-2 = system: SK-MEL-2
OVCAR-4 = system: OVCAR-4
A498 = system: A498
OVCAR-3 = system: OVCAR-3
M19-MEL = system: M19-MEL
Malme-3M = system: Malme-3M
HOP-92 = system: HOP-92
CCRF-CEM = system: CCRF-CEM
MOLT-4 = system: MOLT-4
HCT-116 = system: HCT-116
UO-31 = system: UO-31
KM12 = system: KM12
ACHN = system: ACHN
SF-268 = system: SF-268
OVCAR-5 = system: OVCAR-5
SNB-75 = system: SNB-75
OVCAR-8 = system: OVCAR-8
U-251 = system: U-251
UACC-62 = system: UACC-62
HCC 2998 = system: HCC 2998
HOP-62 = system: HOP-62
UACC-257 = system: UACC-257
SF-539 = system: SF-539
SN12C = system: SN12C
A549 = system: A549
NCI-H522 = system: NCI-H522
HCT-15 = system: HCT-15
786-0 = system: 786-0
SNB-19 = system: SNB-19
DMS-114 = system: DMS-114
DLD-1 = system: DLD-1
NCI-H460 = system: NCI-H460
RXF 631 = system: RXF 631
IGROV-1 = system: IGROV-1
HL-60 = system: HL-60
COLO 205 = system: COLO 205
SK-MEL-5 = system: SK-MEL-5
EKVX = system: EKVX
TK-10 = system: TK-10
NCI-H226 = system: NCI-H226
SF-295 = system: SF-295
NCI-H23 = system: NCI-H23
CAKI-1 = system: CAKI-1
RPMI-8226 = system: RPMI-8226
XF498 = system: XF498
SNB-78 = system: SNB-78
HT-29 = system: HT-29
SK-OV-3 = system: SK-OV-3
LOX IMVI = system: LOX IMVI
SR = system: SR
K562 = system: K562
KM-20L2 = system: KM-20L2
SW-620 = system: SW-620
M14 = system: M14
DMS-273 = system: DMS-273
RXF 393 = system: RXF 393

CN(C)CC[N+]1=Nc2cccc3cccc(c23)N1
GI50 (LXFL 529): 58.1 µM (inactive)
GI50 (SK-MEL-28): > 100 µM (inactive)
GI50 (SK-MEL-2): > 100 µM (inactive)
GI50 (OVCAR-4): 49.5 µM (inactive)
GI50 (A498): 44.6 µM (inactive)
GI50 (OVCAR-3): > 100 µM (inactive)
GI50 (M19-MEL): 47.1 µM (inactive)
GI50 (Malme-3M): > 100 µM (inactive)
GI50 (HOP-92): 34.2 µM (inactive)
GI50 (CCRF-CEM): 27.8 µM (inactive)
GI50 (MOLT-4): 21.6 µM (inactive)
GI50 (HCT-116): 3.86 µM (inactive)
GI50 (UO-31): 13.9 µM (inactive)
GI50 (KM12): > 100 µM (inactive)
GI50 (ACHN): 28.1 µM (inactive)
GI50 (SF-268): > 89.9 µM (inactive)
GI50 (OVCAR-5): > 94 µM (inactive)
GI50 (SNB-75): > 76.6 µM (inactive)
GI50 (OVCAR-8): 43.6 µM (inactive)
GI50 (U-251): > 68.5 µM (inactive)
GI50 (UACC-62): 99.8 µM (inactive)
GI50 (HCC 2998): > 95.7 µM (inactive)
GI50 (HOP-62): 71 µM (inactive)
GI50 (UACC-257): > 100 µM (inactive)
GI50 (SF-539): 72.9 µM (inactive)
GI50 (SN12C): 57.9 µM (inactive)
GI50 (A549): 44.1 µM (inactive)
GI50 (NCI-H522): 33.7 µM (inactive)
GI50 (HCT-15): 62.7 µM
GI50 (786-0): 55.1 µM (inactive)
GI50 (SNB-19): > 49.5 µM (inactive)
GI50 (DMS-114): > 64.3 µM (inactive)
GI50 (DLD-1): > 44.4 µM (inactive)
GI50 (NCI-H460): 16.9 µM (inactive)
GI50 (RXF 631): 44.5 µM (inactive)
GI50 (IGROV-1): 61.8 µM (inactive)
GI50 (HL-60): 24.3 µM (inactive)
GI50 (COLO 205): 31.2 µM (inactive)
GI50 (SK-MEL-5): > 52.8 µM (inactive)
GI50 (EKVX): > 84.7 µM (inactive)
GI50 (TK-10): > 100 µM (inactive)
GI50 (NCI-H226): 71 µM (inactive)
GI50 (SF-295): > 100 µM (inactive)
GI50 (NCI-H23): > 77.3 µM (inactive)
GI50 (CAKI-1): 31 µM (inactive)
GI50 (RPMI-8226): 35.1 µM (inactive)
GI50 (XF498): > 86.3 µM (inactive)
GI50 (SNB-78): > 100 µM (inactive)
GI50 (HT-29): 35.3 µM (inactive)
GI50 (SK-OV-3): > 100 µM (inactive)
GI50 (LOX IMVI): 24.1 µM (inactive)
GI50 (SR): 19.8 µM (inactive)
GI50 (K562): 26.4 µM (inactive)
GI50 (KM-20L2): 40.7 µM (inactive)
GI50 (SW-620): 20.2 µM (inactive)
GI50 (M14): > 100 µM (inactive)
GI50 (DMS-273): 17.7 µM (inactive)

O=C1C2Nc3ccccc3SC2C(=O)N1c1cccc([N+](=O)[O-])c1 (stereo not given)
GI50 (RXF 393): > 100 µM (inactive)
GI50 (LXFL 529): 74.3 µM (inactive)
GI50 (SK-MEL-28): > 100 µM (inactive)
GI50 (SK-MEL-2): > 75.7 µM (inactive)
GI50 (OVCAR-4): > 100 µM (inactive)
GI50 (A498): > 100 µM (inactive)
GI50 (OVCAR-3): > 100 µM (inactive)
GI50 (M19-MEL): > 100 µM (inactive)
GI50 (Malme-3M): > 79.6 µM (inactive)
GI50 (HOP-92): > 100 µM (inactive)
GI50 (CCRF-CEM): 86.7 µM (inactive)
GI50 (MOLT-4): 51.8 µM (inactive)
GI50 (HCT-116): > 100 µM (inactive)
GI50 (UO-31): > 90.2 µM (inactive)
GI50 (KM12): 17 µM (inactive)
GI50 (ACHN): > 84.1 µM (inactive)
GI50 (SF-268): > 100 µM (inactive)
GI50 (OVCAR-5): 13.4 µM (inactive)
GI50 (SNB-75): > 100 µM (inactive)
GI50 (OVCAR-8): > 64 µM (inactive)
GI50 (U-251): > 100 µM (inactive)
GI50 (UACC-62): > 100 µM (inactive)
GI50 (HCC 2998): 10.7 µM (inactive)
GI50 (HOP-62): > 54.8 µM (inactive)
GI50 (UACC-257): > 100 µM (inactive)
GI50 (SF-539): > 100 µM (inactive)
GI50 (SN12C): > 86.9 µM (inactive)
GI50 (A549): 98.9 µM (inactive)
GI50 (NCI-H522): 57.3 µM (inactive)
GI50 (HCT-15): 7.67 µM
GI50 (786-0): > 100 µM (inactive)
GI50 (SNB-19): > 100 µM (inactive)
GI50 (DMS-114): 44.1 µM (inactive)
GI50 (DLD-1): 48.9 µM (inactive)
GI50 (NCI-H460): 50.2 µM (inactive)
GI50 (RXF 631): > 100 µM (inactive)
GI50 (IGROV-1): > 100 µM (inactive)
GI50 (HL-60): > 100 µM (inactive)
GI50 (COLO 205): > 100 µM (inactive)
GI50 (SK-MEL-5): > 100 µM (inactive)
GI50 (EKVX): > 100 µM (inactive)
GI50 (TK-10): 35.4 µM (inactive)
GI50 (NCI-H226): > 86.9 µM (inactive)
GI50 (SF-295): > 74.5 µM (inactive)
GI50 (NCI-H23): 55.8 µM (inactive)
GI50 (CAKI-1): > 100 µM (inactive)
GI50 (RPMI-8226): > 100 µM (inactive)
GI50 (XF498): > 100 µM (inactive)
GI50 (SNB-78): > 100 µM (inactive)
GI50 (HT-29): > 92.3 µM (inactive)
GI50 (SK-OV-3): > 100 µM (inactive)
GI50 (LOX IMVI): > 71.1 µM (inactive)
GI50 (SR): > 100 µM (inactive)
GI50 (K562): > 100 µM (inactive)
GI50 (KM-20L2): > 20.5 µM (inactive)
GI50 (SW-620): > 100 µM (inactive)
GI50 (M14): > 100 µM (inactive)
GI50 (DMS-273): 1.46 µM (inactive)
